# Where two headings read alike, the source gives them in different places.
# Tests used:
# H2O2-induced HepG2 cells [1] = assay: MDA content in H2O2-induced HepG2 cells (kit); assay type: cell-based; details: peptide pretreatment 24 h, then 1.4 mM H2O2 2 h; cell lysate; mean ± SD; model group 10.31 ± 0.23
# Procedure: (§1) After the medium was discarded, 100 μL peptides of different concentrations were added to the wells and cultured for an additional 24 h. After discarding the medium and then being washed, the cells were incubated with 100 μL of an appropriate concentration of H2O2. After incubation for 2 h, the supernatant was collected, and the content of IL-8 was determined strictly, according to the kit instructions. Afterwards, the cells were washed twice with PBS, and then the cell viability was measured. Alternatively, the cells were disrupted with 300 μL of cell lysate and centrifuged at 6000× g at 4 °C for 15 min. The supernatant was collected and stored at −80 °C. The protein concentration was determined using the Bio-Rad DC analysis with BSA as the standard curve. In addition, the contents of SOD, CAT, and MDA in cell lysates were determined in strict accordance with the kit instructions.
# H2O2-induced HepG2 cells [2] = assay: CAT activity in H2O2-induced HepG2 cells (kit); assay type: cell-based; details: for activity of CAT compared with the model group: peptide pretreatment, H2O2-induced HepG2 cells, p < 0.05
# Procedure: as §1
# H2O2-induced HepG2 cells [3] = assay: IL-8 content in H2O2-induced HepG2 cells (ELISA kit); assay type: cell-based; details: peptide pretreatment 24 h, then 1.4 mM H2O2 2 h; supernatant; p < 0.05; model group 154.02 ± 2.80 pg/mL
# Procedure: as §1
# H2O2-induced HepG2 cells [4] = assay: SOD activity in H2O2-induced HepG2 cells (kit); assay type: cell-based; details: for activity of SOD compared with the model group: peptide pretreatment, H2O2-induced HepG2 cells, p < 0.05
# Procedure: as §1
# HepG2 cells = details: 2 h, CCK-8, mean ± SD
# Procedure: HepG2 cells were cultured in 96-well plates at a density of 5 × 10^4 cells/mL for 24 h. After the medium was removed, 100 µL of complete medium containing different concentrations of H2O2 (800, 1000, 1200, 1400, 1600 µM) was added and incubated for 2 h. After the medium was discarded, cell viability was determined using the CCK-8 assay to establish the optimal H2O2 concentration for inducing an oxidative stress model. The cells without H2O2 treatment were used as control group.
# [5] = DPPH radical scavenging activity; assay type: biochemical; details: 100 μL sample + 100 μL 0.1 mmol/L DPPH in anhydrous ethanol, 30 min dark, room temperature, absorbance 517 nm; sample concentration not given; mean ± SD, at least three repeats
# Procedure: Slightly modified according to the previous method, the 100 μL sample solution was mixed with 100 μL 0.1 mmol/L DPPH anhydrous ethanol solution and reacted in the dark at room temperature for 30 min. Then the absorbance was measured at 517 nm. The DPPH free radical scavenging rate of the sample was calculated by the formula below.(1) DPPH radical scavenging rate(%)=(1−A1−A2/A0)×100, where A1 represented the absorbance value the sample reaction with DPPH anhydrous ethanol solution; A2 represented the absorbance value of the sample’s reaction with anhydrous ethanol solution; A0 represented the absorbance of the reaction mixture solution without the sample.
# [6] = Hydroxyl radical scavenging activity; assay type: biochemical; details: salicylic acid / FeSO4 / H2O2 6.0 mmol/L, 37 °C, 0.5 h, absorbance 510 nm; sample concentration not given; mean ± SD, at least three repeats
# Procedure: The hydroxyl radical scavenging activities of samples were performed as in the previous method with slight modifications. Briefly, 6.0 mmol/L salicylic acid solution and FeSO4 solution were prepared, and 0.5 mL of each solution was added into a reaction tube, followed by the addition of a 0.5 mL sample solution and a 0.5 mL H2O2 solution of 6.0 mmol/L. After mixing, the reaction was conducted in a 37 °C water bath for 0.5 h, and then the absorbance was measured at 510 nm. Meanwhile, the sample was replaced with distilled water and used as the blank group, and H2O2 was replaced with distilled water and used as the control group. The hydroxyl radical scavenging rate of the sample was calculated according to the formula below.(3) hydroxyl radical scavenging rate(%)=(1-A0−A1/A)×100, where A0, A1, and A represented the absorbance values of the sample group, blank group, and control group, respectively.
# [7] = ABTS radical scavenging activity; assay type: biochemical; details: 40 μL sample + 160 μL ABTS working solution, 10 min dark, room temperature, absorbance 734 nm; sample concentration not given; mean ± SD, at least three repeats
# Procedure: Slightly modified according to the previous method, 7.4 mmol/L ABTS solution was mixed with the 2.6 mmol/L K2S2O8 solution in equal volume, and then was kept in the dark for 16 h. The ABTS working solution was obtained when the mixture was subsequently diluted with anhydrous ethanol to adjust the absorbance to a range of 0.70 ± 0.02 at 734 nm. Then, the sample solution of 40 μL was mixed with 160 μL ABTS working solution and reacted at room temperature for 10 min in the dark on 96 microporous plates. Meanwhile, the sample was replaced with distilled water as the blank. The absorbance was measured at 734 nm, and the ABTS radical scavenging rate of samples was calculated using the formula below.(2) ABTS radical scavenging rate(%)=[…], where A0 and A1 represented the absorbance values of the blank and sample groups.
Compound,MDA content (H2O2-induced HepG2 cells [1]) [nmol/mg prot],activity of CAT compared with the model group (H2O2-induced HepG2 cells [2]),intracellular IL-8 content compared with the model group (H2O2-induced HepG2 cells [3]),activity of SOD compared with the model group (H2O2-induced HepG2 cells [4]),cell viability (HepG2 cells; H2O2 0.8 µM) [%],cell survival rate (HepG2 cells; H2O2 1.4 mM) [%],cell viability (HepG2 cells; H2O2 1.6 mM) [%],DPPH radical scavenging rate [5],hydroxyl radical scavenging rate [6],"activity of CAT in cells (H2O2-induced HepG2 cells [2]; peptide pretreatment 24 h, then 1.4 mM H2O2 2 h, cell lysate, mean ± SD, model group 26.01 ± 1.78, control 60.80 ± 1.10) [U/mg prot]",ABTS radical scavenging rate [7],"activity of SOD in cells (H2O2-induced HepG2 cells [4]; peptide pretreatment 24 h, then 1.4 mM H2O2 2 h, cell lysate, mean ± SD, model group 6.17 ± 0.41, control 14.35 ± 0.06) [U/mg prot]"
"GHNGLDGL [Gly-His-Asn-Gly-Leu-Asp-Gly-Leu, antioxidant peptide identified from yak skin hydrolysate YSP-I, synthesized]",4.65 ± 0.39,significantly more improved,significantly reduced,significantly more improved,,,,,,,,
"GPAGPQGPR [Gly-Pro-Ala-Gly Pro-Gln-Gly-Pro-Arg, antioxidant peptide identified from yak skin hydrolysate YSP-I, synthesized]",5.96 ± 0.30,significantly more improved,significantly reduced,significantly more improved,,,,,,,,
"OO [H2O2, hydrogen peroxide]",,,,,91.77 ± 4.53,51.29 ± 3.06,37.01 ± 3.20,,,,,
"LMGPR [Leu-Met-Gly-Pro-Arg, antioxidant peptide identified from yak skin hydrolysate YSP-I, synthesized]",5.91 ± 0.27,significantly more improved,significantly reduced,significantly more improved,,,,23.56% ± 2.68%,,,,
"FGFDGDF [Phe-Gly-Phe-Asp-Gly-Asp-Phe, antioxidant peptide identified from yak skin hydrolysate YSP-I, synthesized]",3.945 ± 0.21,significantly more improved,significantly reduced,significantly more improved,,,,25.80% ± 1.82%,44.44% ± 1.94%,47.49 ± 1.14,19.15% ± 1.59%,11.83 ± 0.16
"GFDGD [Gly-Phe-Asp-Gly-Asp, antioxidant peptide identified from yak skin hydrolysate YSP-I, synthesized]",5.55 ± 0.16,significantly more improved,significantly reduced,significantly more improved,,,,,41.61% ± 1.73%,,,
